Experimental data from patent publication US10329289B2, “6,7-dihydro-5H-pyrrolo[3,4-B]pyridin-5-one allosteric modulators of the M4 muscarinic acetylcholine receptor” (Merck Sharp & Dohme Corp., priority 2015, dated 2019).

Biological target: T1, human M4 muscarinic acetylcholine receptor (Homo sapiens, UniProt P08173)
T1 construct: expressed in transfected cells; host or cells: CHO-K1
T1 sequence (P08173 1-479): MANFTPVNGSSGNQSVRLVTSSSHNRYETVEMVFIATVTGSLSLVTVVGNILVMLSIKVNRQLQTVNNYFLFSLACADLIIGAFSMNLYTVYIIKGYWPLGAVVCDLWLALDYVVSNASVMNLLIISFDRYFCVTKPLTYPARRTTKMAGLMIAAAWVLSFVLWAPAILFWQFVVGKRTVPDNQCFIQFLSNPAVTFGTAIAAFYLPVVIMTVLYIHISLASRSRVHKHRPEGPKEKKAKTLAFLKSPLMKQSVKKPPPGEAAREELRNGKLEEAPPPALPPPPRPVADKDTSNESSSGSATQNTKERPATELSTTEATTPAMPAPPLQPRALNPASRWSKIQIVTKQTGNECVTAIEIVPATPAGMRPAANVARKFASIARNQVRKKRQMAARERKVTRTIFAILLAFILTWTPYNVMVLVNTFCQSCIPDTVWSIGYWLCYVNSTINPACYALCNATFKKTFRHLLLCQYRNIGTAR
Assay: human FLIPR-based M4 PAM assay (Ca2+ mobilization, CHO-K1 cells with human M4 receptor and Gαqi5)
Assay type: cell-based
Settings: acetylcholine at 20% of maximum response, read-out: M4 PAM IP
Summary of the method: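 Calcium-mobilization (FLIPR) readout in dye-loaded CHO-K1 cells co-expressing human M4 receptor and Gαqi5. Potentiation measured against acetylcholine at a concentration giving 20% of maximal response, with an optional 70% addition; the reported value is the curve inflection point from a 4-parameter logistic fit.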

SMILES | EC50
COCc1ccc(OC2CCN(c3nc4c(cc3C)C(=O)NC4)CC2)cn1 [Example 203, 2-(4-((6-(methoxymethyl)pyridin-3-yl)oxy)piperidin-1-yl)-3-methyl-6,7-dihydro-5H-pyrrolo[3,4-b]pyridin-5-one] | 531 nM
COCCOCc1ccc(OC2CCN(c3nc4c(cc3C)C(=O)NC4)CC2)cn1 [Example 204, 2-(4-((6-((2-methoxyethoxy)methyl)pyridin-3-yl)oxy)piperidin-1-yl)-3-methyl-6,7-dihydro-5H-pyrrolo[3,4-b]pyridin-5-one] | 1110 nM
COCCOCc1ccc(OC2CCN(c3nc4c(cc3C)C(=O)NC4)CC2)cc1 [Example 205, 2-(4-(4-((2-methoxyethoxy)methyl)phenoxy)piperidin-1-yl)-3-methyl-6,7-dihydro-5H-pyrrolo[3,4-b]pyridin-5-one] | 238 nM
Cc1cc2c(nc1N1CCC(OCc3ccccn3)CC1)CNC2=O [Example 205A, 3-methyl-2-(4-(pyridin-2-ylmethoxy)piperidin-1-yl)-6,7-dihydro-5H-pyrrolo[3,4-b]pyridin-5-one] | 5630 nM
Cc1cc2c(nc1N1CCC(Oc3cnc4[nH]ncc4c3)CC1)CNC2=O [Example 206, 2-(4-((1H-pyrazolo[3,4-b]pyridin-5-yl)oxy)piperidin-1-pyrazolo[3,4-b]yl)-3-methyl-6,7-dihydro-5H-pyrrolo[3,4-b]pyridin-5-one] | 589 nM
Cc1cc2c(nc1N1CCC(Oc3cnn(C)c3)CC1)CNC2=O [Example 206A, 3-methyl-2-(4-((1-methyl-1H-pyrazol-4-yl)oxy)piperidin-1-yl)-6,7-dihydro-5H-pyrrolo[3,4-b]pyridin-5-one] | 259 nM
Cc1cc2c(nc1N1CCC(Oc3ccc4c(c3)OC(F)(F)O4)CC1)CNC2=O [Example 208, 2-(4-((2,2-difluorobenzo[d][1,3]dioxol-5-yl)oxy)piperidin-1-yl)-3-methyl-6,7-dihydro-5H-pyrrolo[3,4-b]pyridin-5-one] | 329 nM
Cc1cc2c(nc1N1CCC(Oc3ccc4c(c3)nc(C)n4C)CC1)CNC2=O [Example 209, 2-(4-((1,2-dimethyl-1H-benzo[d]imidazol-5-yl)oxy)piperidin-1-yl)-3-methyl-6,7-dihydro-5H-pyrrolo[3,4-b]pyridin-5-one] | 2650 nM
Cc1cc2c(nc1N1CCC(Oc3ccc4nc(C)n(C)c4c3)CC1)CNC2=O [Example 210, 2-(4-((1,2-dimethyl-1H-benzo[d]imidazol-6-yl)oxy)piperidin-1-yl)-3-methyl-6,7-dihydro-5H-pyrrolo[3,4-b]pyridin-5-one] | 2580 nM
COC(=O)c1c(C)c(N2CCC(Oc3ccc4c(c3)COC4)CC2)nc2c1C(=O)NC2 [Example 212, methyl 2-(4-((1,3-dihydro-2-benzofuran-5-yl)oxy)piperidin-1-yl)-3-methyl-5-oxo-6,7-dihydro-5H-pyrrolo[3,4-b]pyridine-4-carboxylate] | 1830 nM
Cc1cc2c(nc1N1CCC(Oc3cnc4c(c3)OCC4)CC1)CNC2=O [Example 216A, 2-(4-((2,3-dihydrofuro[3,2-b]pyridin-6-yl)oxy)piperidin-1-yl)-3-methyl-6,7-dihydro-5H-pyrrolo[3,4-b]pyridin-5-one] | 288 nM
COc1ccc(OC2CCN(c3nc4c(cc3C3CC3)C(=O)NC4)CC2)cn1 [Example 221, 3-cyclopropyl-2-(4-((6-methoxypyridin-3-yl)oxy)piperidin-1-yl)-6,7-dihydro-5H-pyrrolo[3,4-b]pyridin-5-one] | 1080 nM
COc1ccc(OC2CCN(c3nc4c(cc3C#N)C(=O)NC4)CC2)cn1 [Example 223, 2-(4-((6-methoxypyridin-3-yl)oxy)piperidin-1-yl)-5-oxo-6,7-dihydro-5H-pyrrolo[3,4-b]pyridine-3-carbonitrile] | 344 nM
Cc1cc(N2CCC(OCC3(C)CC3)CC2)nc2c1C(=O)NC2 [Example 224, 4-methyl-2-(4-((1-methylcyclopropyl)methoxy)piperidin-1-yl)-6,7-dihydro-5H-pyrrolo[3,4-b]pyridin-5-one] | 3520 nM
Cc1c(N2CCC(Oc3cnc4c(c3)COC4)CC2)nc2c(c1C)C(=O)NC2 [Example 227, 2-(4-((5,7-dihydrofuro[3,4-b]pyridin-3-yl)oxy)piperidin-1-yl)-3,4-dimethyl-6,7-dihydro-5H-pyrrolo[3,4-b]pyridin-5-one] | 435 nM

Now those with a lower EC50, led by results:

EC50 | SMILES
96 nM | Cc1cc2c(nc1N1CCC(Oc3ccc4nn(C)cc4c3)CC1)CNC2=O [Example 202A, 3-methyl-2-(4-((2-methyl-2H-indazol-5-yl)oxy)piperidin-1-yl)-6,7-dihydro-5H-pyrrolo[3,4-b]pyridin-5-one]
30 nM | Cc1cc2c(nc1N1CCC(Oc3ccc4c(c3)CCOC4)CC1)CNC2=O [Example 207, 2-(4-(isochroman-6-yloxy)piperidin-1-yl)-3-methyl-6,7-dihydro-5H-pyrrolo[3,4-b]pyridin-5-one]
123 nM | Cc1cc2c(nc1N1CCC(Oc3ccc4c(c3)CS(=O)(=O)C4)CC1)CNC2=O [Example 208A, 2-(4-((2,2-dioxido-1,3-dihydrobenzo[c]thio-phen-5-yl)oxy)piperidin-1-yl)-3-methyl-6,7-dihydro-5H-pyrrolo[3,4-b]pyridin-5-one]
216 nM | COC(=O)Cn1ncc2cc(OC3CCN(c4nc5c(cc4C)C(=O)NC5)CC3)ccc21 [Example 211, methyl 2-(5-((1-(3-methyl-5-oxo-6,7-dihydro-5H-pyrrolo[3,4-b]pyridin-2-yl)piperidin-4-yl)oxy)-1H-indazol-1-yl)acetate]
116 nM | CCc1cc2c(nc1N1CCC(Oc3cnc4c(c3)COC4)CC1)CNC2=O [Example 212A, 2-(4-((5,7-dihydrofuro[3,4-b]pyridin-3-yl)oxy)piperidin-1-yl)-3-ethyl-6,7-dihydro-5H-pyrrolo[3,4-b]pyridin-5-one]
61 nM | CCc1cc2c(nc1N1CCC(Oc3ccc4c(c3)COC4)CC1)CNC2=O [Example 213, 2-(4-((1,3-dihydro-2-benzofuran-5-yl)oxy)piperidin-1-yl)-3-ethyl-6,7-dihydro-5H-pyrrolo[3,4-b]pyridin-5-one]
126 nM | CCc1cc2c(nc1N1CC[C@@H](Oc3cnc4c(c3)COC4)[C@H](F)C1)CNC2=O [Example 213A, 2-((3R,4R)-4-((5,7-dihydrofuro[3,4-b]pyridin-3-yl)oxy)-3-fluoropiperidin-1-yl)-3-ethyl-6,7-dihydro-5H-pyrrolo[3,4-b]pyridin-5-one]
93 nM | CCc1cc2c(nc1N1CC[C@@H](Oc3ccc4c(c3)COC4)[C@@H](F)C1)CNC2=O [Example 214, 2-((3S,4R)-4-((1,3-dihydro-2-benzofuran-5-yl)oxy)-3-fluoropiperidin-1-yl)-3-ethyl-6,7-dihydro-5H-pyrrolo[3,4-b]pyridin-5-one]
42 nM | CCc1cc2c(nc1N1CC[C@@H](Oc3ccc4c(c3)COC4)[C@H](F)C1)CNC2=O [Example 217, 2-((3R,4R)-4-((1,3-dihydro-2-benzofuran-5-yl)oxy)-3-fluoropiperidin-1-yl)-3-ethyl-6,7-dihydro-5H-pyrrolo[3,4-b]pyridin-5-one]
38 nM | COc1ccc(OC2CCN(c3nc4c(c(C)c3C)C(=O)NC4)CC2)cn1 [Example 218, 2-(4-((6-Methoxypyridin-3-yl)oxy)piperidin-1-yl)-3,4-dimethyl-6,7-dihydro-5H-pyrrolo[3,4-b]pyridin-5-one]
25 nM | Cc1c(N2CCC(OCC3(C)CC3)CC2)nc2c(c1C)C(=O)NC2 [Example 219, 3,4-dimethyl-2-(4-((1-methylcyclopropyl)methoxy)piperidin-1-yl)-6,7-dihydro-5H-pyrrolo[3,4-b]pyridin-5-one]
46 nM | Cc1c(N2CC[C@H](OCC3(C)CC3)[C@@H](F)C2)nc2c(c1C)C(=O)NC2 [Example 219A, 2-((3S,4S)-3-fluoro-4-((1-methylcyclopropyl)methoxy)piperidin-1-yl)-3,4-dimethyl-6,7-dihydro-5H-pyrrolo[3,4-b]pyridin-5-one]
109 nM | COCCOc1ccc(OC2CCN(c3nc4c(c(C)c3C)C(=O)NC4)CC2)cn1 [Example 220, 2-(4-((6-(2-methoxyethoxy)pyridin-3-yl)oxy)piperidin-1-yl)-3,4-dimethyl-6,7-dihydro-5H-pyrrolo[3,4-b]pyridin-5-one]
83 nM | Cc1cncc(OC2CCN(c3nc4c(c(C)c3C)C(=O)NC4)CC2)c1 [Example 220A, 3,4-dimethyl-2-(4-((5-methylpyridin-3-yl)oxy)piperidin-1-yl)-6,7-dihydro-5H-pyrrolo[3,4-b]pyridin-5-one]
50 nM | C=Cc1cc2c(nc1N1CCC(Oc3ccc(OC)nc3)CC1)CNC2=O [Example 222, 2-(4-((6-methoxypyridin-3-yl)oxy)piperidin-1-yl)-3-vinyl-6,7-dihydro-5H-pyrrolo[3,4-b]pyridin-5-one]
19 nM | Cc1c(N2CC[C@@H](Oc3ccc4c(c3)COC4)[C@@H](F)C2)nc2c(c1C)C(=O)NC2 [Example 225, 2-((3S,4R)-4-((1,3-dihydro-2-benzofuran-5-yl)oxy)-3-fluoropiperidin-1-yl)-3,4-dimethyl-6,7-dihydro-5H-pyrrolo[3,4-b]pyridin-5-one]
136 nM | O=C1NCc2nc(N3CCC(Oc4ccc5c(c4)COC5)CC3)c(Br)cc21 [Example 226, 3-bromo-2-(4-((1,3-dihydro-2-benzofuran-5-yl)oxy)piperidin-1-yl)-6,7-dihydro-5H-pyrrolo[3,4-b]pyridin-5-one]
